Assay [1] deals with T1, sigma-1 receptor (guinea pig brain) (Cavia porcellus, UniProt Q60492).
T1 construct: from tissue; host or cells: guinea pig brain
Briefly: Antagonism of haloperidol binding to guinea pig sigma-1 receptors. The conditions noted are these: sigma-1, guinea pig brain; for % Inhibition: test concentration not given.

A further assay addresses human sigma receptor (Homo sapiens, UniProt Q99720). Briefly: Human sigma receptor assay. In kind it is binding. The method, then: (§1) The ability of test compounds to displace sigma ligands in vitro was determined by the methods of de Costa et al. (FEBS Lett. 251:53 (1989)) and De Haven-Hudkine et al. (Eur. J. Pharmacol. 227:372 (1992)) having guinea pig as a receptor source. Whereas, the methods of Gamapatju et al. (J. Pharm.&Exp. 289:251 (1999)) were utilized for human sigma receptors.

For assay [2], the target named is T2, guinea pig sigma receptor (Cavia porcellus, UniProt Q60492).
T2 construct: having guinea pig as a receptor source; from tissue; host or cells: guinea pig
The assay is described as follows: Guinea pig sigma receptor assay. In kind it is binding. How it is done: as §1

The test system of another assay is Male Wistar rats. The assay is described as follows: MK-801-Induced Psychosis Model. The conditions noted are these: rat, 0.25 mg/kg i.p.; MK-801 0.3 mg/kg i.p. In kind it is in vivo, rat. An excerpt:
The non-competitive NMDA receptor antagonist MK-801 induces stereotypies and hyperactivity in rodents (1) by interacting with the NMDA receptor-associated ion channel. Phencyclidine, which also interferes with the NMDA receptor, produces psychotic effects in humans similar in many respects to schizophrenia. […] Therefore the MK-801-induced activity and stereotypies in rats may represent an appropriate animal model to test the potential efficacy of antipsychotic drugs.
Male Wistar rats (Iffa Crédo, St Germain/l'Arbresle, France), weight 250-300 g were housed 2 per cage on a 12 h/12 h light dark cycle (lights on at 7.00 a.m.) at a room temperature of 21±2° C. for a minimum of 5 days before testing. All animals had access to commercial food and tap water ad libitum.
On the day of the experiment, rats were treated with either reference drug vehicle, the reference drugs haloperidol or clozapine the test compound vehicle or test compounds. After administration, the rats were returned to their home cages for 15 minutes. […] The remaining rats treated with placebo received a second injection of vehicle. The standard injection volume was 2.0 ml/kg. After 10 minutes in the home cages, rats were transferred to the test box (Plexiglas, 29×12×12 cm), 5 minutes before the assessment for accomodation. The test box was cleaned with 70% ethanol before each assessment. Stereotypies, defined as wall-contacts with the snout, and locomotion, defined as turn-rounds of 180°, were assessed during 5 minute periods.

Where [3] appears, read: read-out: IC50 Against Human Sigma Receptor.
Setting [4] is: read-out: IC50 Against Guinea Pig Sigma Receptor.

The source of these data is US6476019B1, “Spirocyclic ligands for sigma receptors, and libraries and methods of use thereof” (Sepracor Inc., priority 1999, dated 2002).

Where two headings read alike, the source gives them in different places.

T1 sequence (Q60492 whole entry): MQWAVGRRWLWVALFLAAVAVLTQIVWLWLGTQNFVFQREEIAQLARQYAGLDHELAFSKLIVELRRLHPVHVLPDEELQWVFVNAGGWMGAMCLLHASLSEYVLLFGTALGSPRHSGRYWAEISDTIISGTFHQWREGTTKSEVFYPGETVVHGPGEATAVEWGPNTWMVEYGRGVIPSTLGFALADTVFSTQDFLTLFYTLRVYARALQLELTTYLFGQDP
T2 sequence (Q60492 whole entry): as above
human sigma receptor, sequence (Q99720 whole entry): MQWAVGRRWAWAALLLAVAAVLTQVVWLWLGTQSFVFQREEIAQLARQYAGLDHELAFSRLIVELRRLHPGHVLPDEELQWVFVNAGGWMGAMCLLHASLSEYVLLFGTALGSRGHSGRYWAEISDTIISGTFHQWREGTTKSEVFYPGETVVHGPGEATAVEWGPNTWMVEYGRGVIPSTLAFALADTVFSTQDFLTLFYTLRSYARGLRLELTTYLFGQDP

Take “1′-(iso-nicotinyl)-3,4-dihydrospiro[5H-1-benzazepine-2(1H)-4′-piperidin]-5-one [Compound 20]”: in assay [1], the IC50 is above 1 µM and the “% Inhibition” value is recorded as below 50%.
In the case of `NC1CCC2(CCN(Cc3ccc(F)cc3)CC2)Nc2ccccc21` (racemic) [Compound 36, 1′-(4-fluorobenzyl)-3,4-dihydrospiro[5H-1-benzazepine-2(1H)-4′-piperidin]-5-amine], the half-inhibitory concentration (IC50) at human sigma receptor (setting [3]) was below 0.1 µM.
With `CC(=O)NC1CCC2(CCN(Cc3ccc(F)cc3)CC2)Nc2ccccc21` (racemic) [Compound 39], the IC50 was below 1 µM on human sigma receptor (setting [3]) and below 0.01 µM in assay [2] (setting [4]).
In the case of `CC(=O)N1CCC2(CCC(=O)c3ccccc3N2)CC1` [Compound 10, 1′-Acetyl-3,4-dihydrospiro[5H-1-benzazepine-2(1H), 4′-piperidin]-5-one], in assay [1], the “% Inhibition” value is above 50%.
Turning to `O=C1CCC2(CCN(C(=O)c3ccc(Cl)c(Cl)c3)CC2)Nc2ccccc21` [Compound 12, 1′-(3,4-Dichlorobenzoyl)-3,4-dihydrospiro[5H-1-benzazepine-2(1H)-4′-piperidin]-5-one], in assay [1], the IC50 is above 1 µM and the “% Inhibition” value is listed as below 50%.
Turning to `O=C1CCC2(CCN(C(=O)N3CCOCC3)CC2)Nc2ccccc21` [Compound 13, 1′-(4-morpholinecarbonyl)-3,4-dihydrospiro[5H-1-benzazepine-2(1H)-4′-piperidin]-5-one], in assay [1], the IC50 was above 1 µM and the “% Inhibition” value is on record as below 50%.
As for `CC(C)(C)c1ccc(C(=O)N2CCC3(CCC(=O)c4ccccc4N3)CC2)cc1` [Compound 14, 1′-(4-tert-Butylbenzoyl)-3,4-dihydrospiro[5H-1-benzazepine-2(1H)-4′-piperidin]-5-one], in assay [1], the IC50 was above 1 µM and the “% Inhibition” value is recorded as below 50%.
The matching figures for `CCN(CC)C(=O)N1CCC2(CCC(=O)c3ccccc3N2)CC1` [Compound 15, 1′-(Diethylcarbamyl)-3,4-dihydrospiro[5H-1-benzazepine-2(1H)-4′-piperidin]-5-one]: above 1 µM and below 50%.
In the same order, the values of `O=C1CCC2(CCN(C(=O)c3ccc4ccccc4c3)CC2)Nc2ccccc21` [Compound 16, 1′-(2-Naphthoyl)-3,4-dihydrospiro[5H-1-benzazepine-2(1H)-4′-piperidin]-5-one] are above 1 µM and below 50%.
In the same order, the values of `O=C1CCC2(CCN(S(=O)(=O)c3ccccc3)CC2)Nc2ccccc21` [Compound 17, 1′-(Benzenesulfonyl)-3,4-dihydrospiro[5H-1-benzazepine-2(1H)-4′-piperidin]-5-one] are above 1 µM and below 50%.
`O=C1CCC2(CCN(Cc3ccc(OC(F)(F)F)cc3)CC2)Nc2ccccc21` [Compound 18, 1′-(4-Trifluoromethoxybenzyl)-3,4-dihydrospiro[5H-1-benzazepine-2(1H), 4′-piperidin]-5-one]: the “% Inhibition” value in assay [1] is given as above 50%.
As to `COC(=O)c1ccc(CN2CCC3(CCC(=O)c4ccccc4N3)CC2)cc1` [Compound 22, 1′-(Methyl-(4-methylbenzoate))-3,4-dihydrospiro[5H-1-benzazepine-2(1H), 4′-piperidin]-5-one], in assay [1], the IC50 was below 1 µM and the “% Inhibition” value was above 50%.
Take `C=C(C)CCN1CCC2(CCC(=O)c3ccccc3N2)CC1` [Compound 23, 1′-(3-methyl-3-butene)-3,4-dihydrospiro[5H-1-benzazepine-2(1H)-4′-piperidin]-5-one]: the “% Inhibition” value in assay [1] is above 50%.
Same read-out and setting: the value for `N#Cc1ccc(CN2CCC3(CCC(=O)c4ccccc4N3)CC2)cc1` [Compound 24, 1′-(4-cyanobenzyl)-3,4-dihydrospiro[5H-1-benzazepine-2(1H), 4′-piperidin]-5-one] was above 50%; that for `O=C1CCC2(CCN(CCC3CCCCC3)CC2)Nc2ccccc21` [Compound 25] was above 50%.
`C=CCN1CCC2(CCC(=O)c3ccccc3N2)CC1` [Compound 26, 1′-(allyl)-3,4-dihydrospiro[5H-1-benzazepine-2(1H)-4′-piperidin]-5-one]: the “% Inhibition” value in assay [1] is reported as above 50%.
Turning to `CC(C)(C)CCN1CCC2(CCC(=O)c3ccccc3N2)CC1` [Compound 27, 1′-(3,3-dimethylbutane)-3,4-dihydrospiro[5H-1-benzazepine-2(1H)-4′-piperidin]-5-one], the “% Inhibition” value in assay [1] is reported as above 50%.
Still for that read-out and setting: the value for `O=C1CCC2(CCN(CC3CO3)CC2)Nc2ccccc21` (stereo not shown) [Compound 28, 1′-(epoxymethyl)-3,4-dihydrospiro[5H-1-benzazepine-2(1H)-4′-piperidin]-5-one] was above 50%.
On to `CC(C)CCN1CCC2(CCC(=O)c3ccccc3N2)CC1` [Compound 29, 1′-(3-methylbutane)-3,4-dihydrospiro[5H-1-benzazepine-2(1H)-4′-piperidin]-5-one], for which, in assay [1], the IC50 is below 0.1 µM and the “% Inhibition” value was above 50%.
In the same order, the values of `O=C1CCC2(CCN(Cc3ncc[nH]3)CC2)Nc2ccccc21` [Compound 30, 1′-(2-methyl-imidazole)-3,4-dihydrospiro[5H-1-benzazepine-2(1H)-4′-piperidin]-5-one] are below 1 µM and above 50%.
As for `O=C1C=CC2(CCN(Cc3ccc(F)cc3)CC2)Nc2ccccc21` [Compound 34, 1′-(4-Fluorobenzyl)-spiro[5-1-benzazepine-2(1H)-4′-piperidin]-5-one], the IC50 in assay [2] (setting [4]) and in assay [1] was below 0.1 µM in each case. The “% Inhibition” value in assay [1] is on record as above 50%.
On to `Fc1ccc(CN2CCC3(CCCc4ccccc4N3)CC2)cc1` [Compound 43], for which, on human sigma receptor (setting [3]), the IC50 is below 1 µM.
Regarding `O=C1CCC2(CCN(CC(O)c3ccccc3)CC2)Nc2ccccc21` (stereo not shown) [Compound 45, 1′-(2-hydroxy-phenethyl)-3,4-dihydrospiro[5H-1-benzazepine-2(1H)-4′-piperidin]-5-one], the figures for the IC50 (at human sigma receptor (setting [3]); in assay [2] (setting [4])) were below 0.1 µM and below 0.01 µM, respectively.
In the same order, the values of `CC(c1ccc(F)cc1)N1CCC2(CCC(=O)c3ccccc3N2)CC1` (stereo not shown) [Compound 46, 1′-(1-Methyl-4-fluorobenzyl)-3,4-dihydrospiro[5H-1-benzazepine-2(1H)-4′-piperidin]-5-one] are below 0.1 µM and below 0.01 µM.
`C=C1c2ccccc2NC12CCN(Cc1ccc(F)cc1)CC2` [Compound 53, 1-Fluorobenzyl-spiro[(3-methylene)-indole-2,4′-piperidine]]: the results for the IC50 (at human sigma receptor; in assay [2]) were above 1 µM and below 0.1 µM, respectively.
`O=C(CCCN1CCC(O)(c2ccc(Cl)cc2)CC1)c1ccc(F)cc1` [haloperidol, reference compound]: in the assay on Male Wistar rats, the MK-801-induced locomotion entry is recorded as “significant reduction” and the MK-801-induced stereotypies result is “significant reduction”.

Broadly, the IC50 is the concentration at which inhibition is half-maximal. As a reminder, the % Inhibition is the share of the control response that was lost under treatment. A higher % Inhibition goes with a response far below the control.
